We go through two compounds from PMC10233829 (ACS Omega, 2023).

The structures appear in SMILES notation. In brackets after ≈: the same amount, converted by molar mass.

The subject of data set [1] is IL-6 level in PC3 cells. Nature of the data set: Interleukin-6 ELISA. To be noted: PC3, IC50 concentration, 72 h. Format: cell-based, human. Here is the method: (§1) The level of interleukin-6 (IL-6) in PC3 and HaCaT cell lines was measured by commercial human IL-6 ELISA kits Diaclon SAS (Besancon Cedex, France). […] The untreated cells were used as the control. The IL-6 level in a cell culture supernatant was measured using an enzyme-linked immunosorbent assay in accordance with the manufacturer’s instruction. The experiment was repeated three times.
On the technique in general: An ELISA detects its analyte on a solid surface through an enzyme-linked reagent.

The test system of data set [2] is IL-6 level in HaCaT cells. Nature of the data set: Interleukin-6 ELISA. It is filed as cell-based, human. The following applies: IC50 concentration, 72 h. Here is the method:
as §1

The subject of data set [3] is S. aureus ATCC 6538. Nature of the data set: Bacterial growth curve assay (OD600, 18 h). Format: cell-based, Staphylococcus aureus. To be noted: S. aureus ATCC 6538, 0.1 μg/mL.
The test system of data set [4] is E. coli ATCC 25922 biofilm. Nature of the data set: Biofilm eradication assay (crystal violet). It is filed as cell-based, Escherichia coli. To be noted: 4 MIC. The protocol:
(§2) Three bacterial strains E. coli ATCC 25922, P. aeruginosa ATCC 15442, and S. aureus ATCC 6538 were used to assign biofilm eradication properties of compounds 5, 10, 11, and CP as the reference drug. To quantify the biomass of the bacteria biofilm, the crystal violet method was used with some modifications.[52] The bacteria were incubated to the mid-log phase, diluted to 103 cfu/mL in brain–heart infusion medium, and seeded in a 96-well plate. Bacterial biofilms were formed by overnight incubation at 37 °C with rotation at 140 rpm. After biofilm formation, all wells were washed with PBS to remove nonadherent bacteria cells. […] The biofilms with tested substances were incubated for 20 h at 37 °C with shaking at 140 rpm. The bacterial biofilm was stained with 0.1% (v/v) CV for 10 min. Afterward, the biofilm was rinsed with PBS and dried. To solubilize the adsorbed crystal violet, wells with stained biofilms were incubated in 30% acetic acid. To estimate the total biofilm biomass, optical density (OD) of the resulting solution was measured at 595 nm. Biofilm assays were repeated at least three times on different days, with two technical replicates assessed each time. A minimum eradication concentration (MBEC) was determined as the lowest concentration of compound, which could damage ≥50% of the formed biofilm structure.

In data set [5] the test system is PC3 cells. Nature of the data set: MTT assay, cytotoxic activity. Format: cell-based, human. To be noted: MTT, 72 h. The method, boiled down: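 Cytotoxicity readout: relative MTT level (%), i.e. absorbance of compound-treated PC3 cells divided by that of untreated controls, ×100. Cultures were kept in a humidified 37 °C, 5% CO2 incubator.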
(In general: Tetrazolium dyes change colour on reduction, which living cells bring about.)

Data set [6] concerns S. aureus ATCC 6538 biofilm. Nature of the data set: Biofilm eradication assay (crystal violet). It is filed as cell-based, Staphylococcus aureus. To be noted: 4–2 MIC. Here is the method: as §2
The subject of data set [7] is P. aeruginosa ATCC 15442. Nature of the data set: Bacterial growth curve assay (OD600, 18 h). It is filed as cell-based, Pseudomonas aeruginosa. The following applies: P. aeruginosa.
The test system of data set [8] is S. epidermidis 4341. Nature of the data set: MIC, twofold microdilution, clinical strain. Format: cell-based. The following applies: Staphylococcus epidermidis, 18 h. (Dilution methods test growth across graded concentrations, often in twofold steps.)
Data set [9] relates to E. coli 600. Nature of the data set: MIC, twofold microdilution, clinical strain. It is filed as cell-based, Escherichia coli. To be noted: Escherichia coli, 600, 18 h.
For data set [10], the system named is E. coli ATCC 25922. Nature of the data set: MIC, twofold microdilution, standard strain. It is filed as cell-based, Escherichia coli. The following applies: Escherichia coli, ATCC25922; standard strain, 18 h.
Data set [11] has as its system S. aureus 180. Nature of the data set: MIC, twofold microdilution, clinical strain. It is filed as cell-based. The following applies: Staphylococcus aureus, 18 h.
The test system of data set [12] is P. aeruginosa 659. Nature of the data set: MIC, twofold microdilution, clinical strain. Format: cell-based. The following applies: Pseudomonas aeruginosa, 18 h.
Data set [13] has as its system M. tuberculosis H37Rv. Nature of the data set: Tuberculostatic activity, Microplate Alamar Blue Assay (MIC). It is filed as cell-based, Mycobacterium tuberculosis. The following applies: Mycobacterium tuberculosis, H37RV; MABA; read-out: MIC M. tuberculosis H37Rv.
Data set [14] concerns S. aureus ATCC 29213. Nature of the data set: MIC, twofold microdilution, standard strain. It is filed as cell-based. To be noted: Staphylococcus aureus, ATCC29213, 18 h.
Data set [15] deals with K. pneumoniae 28. Nature of the data set: MIC, twofold microdilution, clinical strain. The following applies: Klebsiella pneumoniae, 18 h. Format: cell-based.
Data set [16] relates to S. aureus 5595. Nature of the data set: MIC, twofold microdilution, clinical strain. The following applies: Staphylococcus aureus, 18 h. It is filed as cell-based.
Data set [17] relates to M. tuberculosis Spec. 192. Nature of the data set: Tuberculostatic activity, Microplate Alamar Blue Assay (MIC). To be noted: Mycobacterium tuberculosis, MABA, read-out: MIC M. tuberculosis Spec. 192 (sensitive to tuberculostatics). Format: cell-based.
A short description of data set [18]: MTT assay, cytotoxic activity. It is filed as cell-based. To be noted: human, HaCaT cells (immortal keratinocytes); MTT, 72 h, normal cell line; read-out: IC50 HaCaT. The procedure, abridged: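 Viability was calculated as A/B × 100%, with A the absorbance of treated samples and B that of untreated controls, from MTT reduction. Cells were cultured in a humidified 37 °C/5% CO2 incubator.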

Data set [19] relates to clinical bacterial strains. Nature of the data set: MIC, clinical isolates as groups of strains. To be noted: S. aureus 180 and 5595. Format: cell-based.
In data set [20] the test system is S. aureus ATCC 25923. Nature of the data set: MIC, twofold microdilution, standard strain. Format: cell-based. To be noted: Staphylococcus aureus, ATCC25923, 18 h.
Data set [21] deals with E. cloacae 8. Nature of the data set: MIC, twofold microdilution, clinical strain. Format: cell-based, Escherichia cloacae. To be noted: Enterobacter cloacae, 8; clinical strain, 18 h.
The subject of data set [22] is M. tuberculosis Spec 210. Nature of the data set: microbe, parasite or virus in culture. It is filed as cell-based, Mycobacterium tuberculosis. The following applies: M. tuberculosis Spec. 210.
Data set [23] relates to S. pasteuri KR 4358. Nature of the data set: MIC, twofold microdilution, clinical strain. It is filed as cell-based. The following applies: Staphylococcus pasteuri, KR4358, 18 h.
Data set [24] has as its system S. aureus NCTC 4163. Nature of the data set: MIC, twofold microdilution, standard strain. It is filed as cell-based. The following applies: Staphylococcus aureus, NCTC4163, 18 h.
The test system of data set [25] is S. aureus T5591. Nature of the data set: MIC, twofold microdilution, clinical strain. It is filed as cell-based, Staphylococcus aureus. The following applies: Staphylococcus aureus, T5591, 18 h.
For data set [26], the system named is S. epidermidis 5253. Nature of the data set: MIC, twofold microdilution, clinical strain. It is filed as cell-based, Staphylococcus epidermidis. To be noted: Staphylococcus epidermidis, 5253, 18 h.
The test system of data set [27] is E. coli 520. Nature of the data set: MIC, twofold microdilution, clinical strain. Format: cell-based. To be noted: Escherichia coli, 18 h.
The test system of data set [28] is S. epidermidis KR4243/1. Nature of the data set: MIC, twofold microdilution, clinical strain. To be noted: Staphylococcus epidermidis, 18 h. It is filed as cell-based.
Data set [29] concerns S. aureus ATCC 6538. Nature of the data set: MIC, twofold microdilution, standard strain. It is filed as cell-based, Staphylococcus aureus. The following applies: Staphylococcus aureus, ATCC6538; standard strain, 18 h.
In data set [30] the test system is K. pneumoniae 510. Nature of the data set: MIC, twofold microdilution, clinical strain. It is filed as cell-based, Klebsiella pneumoniae. To be noted: Klebsiella pneumoniae, 510; clinical strain, 18 h.
In data set [31] the test system is P. aeruginosa ATCC 15442 and E. coli ATCC 25922. Nature of the data set: MIC, standard Gram-negative rods as a panel. To be noted: P. aeruginosa ATCC 15442, E. coli ATCC 25922; read-out: MIC against standard Gram-negative rods (range over strains). Format: cell-based.
Data set [32] deals with P. aeruginosa 37. Nature of the data set: MIC, twofold microdilution, clinical strain. It is filed as cell-based. To be noted: Pseudomonas aeruginosa, 18 h.
The subject of data set [33] is P. aeruginosa ATCC 15442. Nature of the data set: MIC, twofold microdilution, standard strain. It is filed as cell-based, Pseudomonas aeruginosa. To be noted: Pseudomonas aeruginosa, ATCC15442; standard strain, 18 h.
Data set [34] deals with S. aureus T5595. Nature of the data set: MIC, twofold microdilution, clinical strain. Format: cell-based, Staphylococcus aureus. The following applies: Staphylococcus aureus, T5595, 18 h.
Data set [35] concerns S. epidermidis ATCC 35984. Nature of the data set: MIC, twofold microdilution, standard strain. Format: cell-based. To be noted: Staphylococcus epidermidis, ATCC35984, 18 h.
Data set [36] concerns S. epidermidis ATCC 12228. Nature of the data set: MIC, twofold microdilution, standard strain. The following applies: Staphylococcus epidermidis, ATCC12228, 18 h. Format: cell-based.
Data set [37] has as its system E. coli 951. Nature of the data set: MIC, twofold microdilution, clinical strain. It is filed as cell-based. The following applies: Escherichia coli, 18 h.

The term IC50 denotes the point on the concentration scale where inhibition reaches its midpoint. The MIC is the lowest concentration that inhibits growth of the organism. As usually defined, the melting point is the temperature, or range, at which the solid turns liquid.

Regarding `O=C(O)c1cn(C2CC2)c2cc(N3CCNCC3)c(F)cc2c1=O` [CP, ciprofloxacin, reference compound], the “decrease of IL-6 release as compared to the control” value in data set [1] was found to be 2.4 times. Also, in [2], the “effect on IL-6 in human keratinocytes” value is “stimulated human keratinocytes to produce IL-6”. Moreover, the “bacterial growth limited up to” value in data set [3] is given as “up to 12 h”. Besides, the “eradication of the biofilm formed by E. coli” value in [4] is given as “approx. 20%”. The IC50 in data set [5] (Homo sapiens, PC-3, 72 h) is more than 100 µM; in data set [5] it was 100 ± 3.6 µM. Moreover, in [6], the “elimination of the mature biofilm of S. aureus ATCC 6538” value is recorded as 19–25%. Moreover, in data set [7] (0.05 μg/mL), the “lag phase elongated up to” value is recorded as “up to 14 h”. The “elongation of the exponential phase to” value in [7] (0.03–0.006 μg/mL) was 9 h.

`O=C(O)c1cn(C2CC2)c2cc(N3CCN(CCCCC(=O)N4CCN(c5cc6c(cc5F)c(=O)c(C(=O)O)cn6C5CC5)CC4)CC3)c(F)cc2c1=O` [Compound 19, CP–Pentanoyl–CP Dimer] gave a melting point of 170.3 to 171.9 °C. This compound also yielded an MIC in [8] of more than 25.6 µg/mL. The compound also registered an MIC in [9] of 3.2 µg/mL (≈ 4.3 µM). In addition, the MIC in data set [10] is 0.4 µg/mL (≈ 0.537 µM). The compound further yielded an MIC in [11] of 1.6 µg/mL (≈ 2.15 µM). This compound displayed an MIC in data set [12] of 25.6 µg/mL (≈ 34.4 µM). For the same compound, in data set [13], the MIC is 8 µg/mL (≈ 10.7 µM). In data set [14], this compound gave an MIC of 0.8 µg/mL (≈ 1.07 µM). For the same compound, in data set [15], the minimum inhibitory concentration (MIC) is more than 25.6 µg/mL. The same compound displayed an MIC in data set [16] of 0.8 µg/mL (≈ 1.07 µM). Besides, the MIC in data set [17] turned out to be 8 µg/mL (≈ 10.7 µM). Moreover, the IC50 at 72 h in data set [18] is 72.9 ± 5.7 µM. The “share of CP inhibitory activity” value in [19] is 62.5%. Inhibition of growth in data set [20] (MIC) required 0.8 µg/mL (≈ 1.07 µM). For the same compound, it took 3.2 µg/mL (≈ 4.3 µM) to inhibit growth in data set [21] (MIC). Besides, the “fold more effective than the reference tuberculostatics” value in data set [22] is given as 8–32 fold. In data set [23], the MIC amounted to 1.6 µg/mL (≈ 2.15 µM). The compound further came in with an MIC in data set [24] of 0.4 µg/mL (≈ 0.537 µM). Further, the MIC in data set [25] was found to be 0.8 µg/mL (≈ 1.07 µM). The compound further gave an MIC in [26] of more than 25.6 µg/mL. In [5] (Homo sapiens, PC-3, 72 h), this compound registered an IC50 of 71.4 ± 3.2 µM. Further, in [27], inhibition of growth (MIC) required 3.2 µg/mL (≈ 4.3 µM). The compound also registered an MIC in data set [28] of 1.6 µg/mL (≈ 2.15 µM). In [29], this compound displayed an MIC of 0.4 µg/mL (≈ 0.537 µM). This compound displayed an MIC in data set [30] of more than 25.6 µg/mL. Besides, the MIC in data set [31] is not above 1 µg/mL. Besides, the minimal inhibitory concentration (MIC) in [32] is more than 25.6 µg/mL. In data set [33], the MIC was 3.2 µg/mL (≈ 4.3 µM). The MIC in data set [34] turned out to be 1.6 µg/mL (≈ 2.15 µM). The compound further yielded an MIC in [35] of 0.8 µg/mL (≈ 1.07 µM). This compound gave a minimal inhibitory concentration (MIC) in [36] of 0.8 µg/mL (≈ 1.07 µM). The compound also showed an MIC in data set [37] of 25.6 µg/mL (≈ 34.4 µM).
